Patent US20080287396A1, “Phosphonated Fluoroquinolones, Antibacterial Analogs Thereof, and Methods for the Prevention and Treatment of Bone and Joint Infections” (TARGANTA THERAPEUTICA INC., priority 2005, published 2008)
Entries after “also recorded” stand apart in the source; their conditions may differ.

Tests used:
[1] = Bone powder binding, fluorometric detection; conditions: for Binding to bone (%) Fluorescence: 1 mg/ml compound, bone meal powder 10 mg/ml in PBS, 37° C., 1 h
Procedure: The ability of the example molecules to bind to bone powder was established in two parallel fashions, using either LC/MS or fluorometric detection. For LC/MS detection, a stock solution (5 mM) of the compound to be tested was added to 0.1M Tris-HCl buffer pH 7, 0.15M NaCl to reach a final concentration of 100 μM. Triplicate samples (1 mL) of the compound solutions were intensively shaken for 10 min with or without 25 mg of fresh or 20 mg of vacuum dried ground rat tibia bone. The samples were then centrifuged for 15 min at 10 000 g. The presence of unbound compound was measured by injection of 30 μL of each of the supernatants into an Agilent 1100™ LC/UV system. For fluorometric detection, an individual compound was dissolved in PBS or water (compound 52) and resuspended at a concentration of 1 mg/ml in a slurry of bone meal powder (Now Foods, Bloomingdale, Ill., USA) in PBS at 10 mg/ml. The suspension of drug/prodrug in bone meal powder was incubated at 37° C. for 1 h to allow for binding, and centrifuged at 13 000 rpm for 2 min, before recovering the supernatant. The bone meal powder pellet was then washed three times with 1 ml of PBS. All supernatants were saved and assessed for fluoroquinolone content by fluorescence measurements at excitation/emission wavelengths of 280/465 nm. The amount of fluoroquinolone was determined from standard curves generated for each experiment. Amount of drug/prodrug bound to bone powder was deduced from the difference between the input amount (typically 1 mg) and the amount recovered in the supernatants after binding. In all binding experiments, >99% of input drug was recovered in the supernatant for the parent drugs.

[2] = Regeneration of drug from bone powder-bound prodrug; assay type: in vitro ADME; conditions: PBS vs serum
Procedure: Amounts of drug “regenerated” from the phosphonated parent prodrug were measured as follows. Washed bone powder-bound prodrugs from the above section were resuspended in 400 μL PBS or in 400 μL 50% (v/v in PBS) human or rat serum. […] Methanol (5× volume relative to supernatant) was added to each supernatant and the mixture was vortexed on a floor model vortex for 15 min to extract freed fluoroquinolone. The mixture was then centrifuged at 10 000 rpm for 15 min to pellet the insoluble material. The supernatant containing the extracted fluoroquinolone was recovered and evaporated to dryness in a speed vac. The dried pellets were resuspended in PBS and the amount of fluoroquinolone was determined by fluorescence measurements as described above. The percentage of drug regenerated was deduced from the difference between amount of bound prodrug and the amount of regenerated drug. The identity of regenerated drug was deduced by MIC determination; MICs of regenerated material matched those of parent drugs but not those of prodrugs.

S. aureus ATCC 13709 = test: Prophylactic model of bone infection in rats; assay type: in vivo, rat; conditions: for prophylactic effect in rat model of bone infection, in words: Table 4 and FIGS. 6-8, doses as in Table 4
Procedure: To determine the activity in vivo of bisphosphonated prodrugs of fluoroquinolones, compounds 52 and 107, derivatives of parent compounds moxifloxacin 3 (for 52), and compounds 39, 44, 49, 54, 121, 129, 141, 145, 149, derivatives of parent compound gatifloxacin 15, were used in a prophylactic model for infection. Specifically, S. aureus ATCC 13709 cells were grown overnight at 37° C. in brain heart infusion broth (BHIB). Cells were subcultured into fresh BHIB and incubated for 4 to 5 h at 37° C. The cells were washed twice with phosphate-buffered saline (PBS) and resuspended in BHIB supplemented with 10% (vol./vol.) fetal bovine serum at a density of approximately 10^10 colony forming units (CFU)/ml (based upon turbidimetry). The suspension was aliquoted and a portion was used to check the CFU count. The culture was stored frozen (−80° C.) and was used without subculture. For use as an inoculum the culture was thawed, diluted in PBS and kept in an ice bath until it was used.
Animals were infected as described by O'Reilly et al. (Antimicrobial Agents and Chemotherapy (1992), 36(12): 2693-97) to generate the bone infection. Female CD rats (age, 57 to 70 days; n=5/group; Charles River, St-Constant, Canada) were anaesthetized by isofluorane before and during the surgery. Following complete induction of anesthesia, the rat was placed ventral side up and hair was shaved from the surgical site. The skin over the leg was cleaned and disinfected (proviodine-ethanol 70%). A longitudinal incision below the knee joint was made in the sagital plane. The incision was made over the bone below the “knee joint” (tibia head or condyle) but not completely extending to the ankle. A high speed drill fitted with a 2 mm bulb bit was used to drill a hole into the medullar cavity of the tibia. Rats were injected intra-tibially with 0.05 ml 5% sodium morrhuate (sclerosing agent) and then with 0.05 ml of S. aureus suspension (ca. 5×10^5 CFU/rat). The hole was sealed by applying a small amount of dry dental cement which immediately absorbs fluids and adheres to the site. The wound was closed using 3 metal skin clips. Moxifloxacin 3 (as a positive control) was injected once at 10 mg/kg intravenously 1 h postinfection in saline, while the fluoroquinolone prodrugs (prepared in 0.9% saline) were injected as a single intravenous bolus dose at different time points prior to the infection. For comparison, the parent drug (moxifloxacin 3 or gatifloxacin 15) was also injected intravenously once at a molar equivalent dose at the same time point prior the infection.
Infected rats were sacrificed by CO2 asphyxiation 24 h postinfection to monitor the bacterial CFU count. Infected tibiae were removed, dissected free of soft tissue, and weighed. The bones were ground using a metal ball mill, resuspended in 5 ml 0.9% NaCl, serially diluted and processed for quantitative cultures. For compounds 39, 44, 49, 54, 141, 145, 149, 1 ml of the 0.9% NaCl solution was added to 50 mg of charcoal before serial dilutions. Treatment efficacies were measured in terms of Log viable bacteria (Log CFU per gram of bone). The results obtained for each group of rats were evaluated by calculating the mean Log CFU and standard deviation. The limit of detection is 2 Log CFU/g of bone. Statistical comparisons of viable bacterial counts for the different treated and untreated groups were performed with Dunnett's multiple-comparison test. Differences were considered significant when the P value was <0.05 when comparing treated infected animals to the untreated infected ones.

Row | Structure (SMILES) | Binding to bone (%) Fluorescence [1] [%] | effect of the medium (presence or absence of serum) on regeneration rate [2] | Measured bacterial titer (Log CFU/g of bone) Test compound (S. aureus ATCC 13709; 19.4 mg/kg IV, 1 day prior to infection) | prophylactic effect in rat model of bone infection, in words (S. aureus ATCC 13709) | binding to osseous matter, in words ([1]; bisphosphonates bearing three hydroxy groups) | Measured bacterial titer (Log CFU/g of bone) Test compound (S. aureus ATCC 13709; 15 mg/kg IV, 2 days prior to infection)
1 | COc1c(N2CCNC(C)C2)c(F)cc2c(=O)c(C(=O)Oc3ccc(C(P(=O)(O)O)P(=O)(O)O)cc3)cn(C3CC3)c12 (stereo not drawn) [Compound 87, 4-(Bisphosphonomethyl)phenyl 7-(3-methylpiperazin-1-yl)-1-cyclopropyl-6-fluoro-1,4-dihydro-8-methoxy-4-oxoquinoline-3-carboxylate] | 79.2 | fairly similar rates |  |  |  | 
2 | COc1c(N2C[C@@H]3CCCN(C(=O)CC(P(=O)(O)O)P(=O)(O)O)[C@@H]3C2)c(F)cc2c(=O)c(C(=O)O)cn(C3CC3)c12 [Compound 107, 7-((4aS,7aS)-1-(3,3-bisphosphonopropionyl)-octahydropyrrolo[3,4-b]pyridin-6-yl)-1-cyclopropyl-6-fluoro-1,4-dihydro-8-methoxy-4-oxoquinoline-3-carboxylic acid] | 98.2 |  | 5.40 ± 0.93 Log CFU/g of bone | lack of effect |  | 
3 | COc1c(N2C[C@@H]3CCCN[C@@H]3C2)c(F)cc2c(=O)c(C(=O)Oc3ccc(C(P(=O)(O)O)P(=O)(O)O)cc3)cn(C3CC3)c12 [Compound 85, 4-(Bisphosphonomethyl)phenyl 1-cyclopropyl-6-fluoro-1,4-dihydro-7-((4aS,7aS)-octahydropyrrolo[3,4-b]pyridin-6-yl)-8-methoxy-4-oxoquinoline-3-carboxylate] | 98.9 | fairly similar rates |  |  |  | 
4 | COc1c(N2C[C@@H]3CCCN[C@@H]3C2)c(F)cc2c(=O)c(C(=O)OCC(=O)Nc3ccc(C(P(=O)(O)O)P(=O)(O)O)cc3)cn(C3CC3)c12 [Compound 73, (4-Bisphosphonomethylphenylcarbamoyl)methyl 1-cyclopropyl-6-fluoro-1,4-dihydro-7-((4aS,7aS)-octahydropyrrolo[3,4-b]pyridin-6-yl)-8-methoxy-4-oxoquinoline-3-carboxylate] | 99.0 | fairly similar rates |  |  |  | 
5 | COc1c(N2CCN(C(=O)CC(C)(C)c3cc(P(=O)(O)CP(=O)(O)O)ccc3OP(=O)(O)O)C(C)C2)c(F)cc2c(=O)c(C(=O)O)cn(C3CC3)c12 (stereo not drawn) [Compound 153, 7-(4-(3-(2-phosphoryloxy-5-((phosphonomethyl)phosphonoyl)phenyl)-3-methylbutanoyl)-3-methylpiperazin-1-yl)-1-cyclopropyl-6-fluoro-1,4-dihydro-8-methoxy-4-oxoquinoline-3-carboxylic acid] | 0 |  |  | unable to produce a positive result in vivo | less effectively bound; also recorded: not bound at all | 4.08 ± 0.54 Log CFU/g of bone
6 | COc1c(N2CCNC(C)C2)c(F)cc2c(=O)c(C(=O)OCC(=O)N(C)C(P(=O)(O)O)P(=O)(O)O)cn(C3CC3)c12 (stereo not drawn) [Compound 82, (N-Methyl-1,1-Bisphosphonomethylcarbamoyl)methyl 7-(3-methylpiperazin-1-yl)-1-cyclopropyl-6-fluoro-1,4-dihydro-8-methoxy-4-oxoquinoline-3-carboxylate] | 90.4 | fairly similar rates |  |  |  | 
